In the kinase profiling compilation of Christmann-Franck et al. (2016):

Legend:
Test in all cases: KINOMEscan competition binding
Conditions in all cases: compound 10.0 µM
CDK19 (human) = CDK19 (human) (UniProt Q9BWU1)
CSNK1E (human) = CSNK1E (human) (UniProt P49674)
CSNK1G3 (human) = CSNK1G3 (human) (UniProt Q9Y6M4)
CSNK2A2 (human) = CSNK2A2 (human) (UniProt P19784)
CaMK1 (human) = CaMK1 (human) (UniProt Q14012)
EPHA5 (human) = EPHA5 (human) (UniProt P54756)
FGFR4 (human) = FGFR4 (human) (UniProt P22455)
FLT4 (human) = FLT4 (human) (UniProt P35916)
FLT4 (human), sequence (P35916 whole entry, looked up): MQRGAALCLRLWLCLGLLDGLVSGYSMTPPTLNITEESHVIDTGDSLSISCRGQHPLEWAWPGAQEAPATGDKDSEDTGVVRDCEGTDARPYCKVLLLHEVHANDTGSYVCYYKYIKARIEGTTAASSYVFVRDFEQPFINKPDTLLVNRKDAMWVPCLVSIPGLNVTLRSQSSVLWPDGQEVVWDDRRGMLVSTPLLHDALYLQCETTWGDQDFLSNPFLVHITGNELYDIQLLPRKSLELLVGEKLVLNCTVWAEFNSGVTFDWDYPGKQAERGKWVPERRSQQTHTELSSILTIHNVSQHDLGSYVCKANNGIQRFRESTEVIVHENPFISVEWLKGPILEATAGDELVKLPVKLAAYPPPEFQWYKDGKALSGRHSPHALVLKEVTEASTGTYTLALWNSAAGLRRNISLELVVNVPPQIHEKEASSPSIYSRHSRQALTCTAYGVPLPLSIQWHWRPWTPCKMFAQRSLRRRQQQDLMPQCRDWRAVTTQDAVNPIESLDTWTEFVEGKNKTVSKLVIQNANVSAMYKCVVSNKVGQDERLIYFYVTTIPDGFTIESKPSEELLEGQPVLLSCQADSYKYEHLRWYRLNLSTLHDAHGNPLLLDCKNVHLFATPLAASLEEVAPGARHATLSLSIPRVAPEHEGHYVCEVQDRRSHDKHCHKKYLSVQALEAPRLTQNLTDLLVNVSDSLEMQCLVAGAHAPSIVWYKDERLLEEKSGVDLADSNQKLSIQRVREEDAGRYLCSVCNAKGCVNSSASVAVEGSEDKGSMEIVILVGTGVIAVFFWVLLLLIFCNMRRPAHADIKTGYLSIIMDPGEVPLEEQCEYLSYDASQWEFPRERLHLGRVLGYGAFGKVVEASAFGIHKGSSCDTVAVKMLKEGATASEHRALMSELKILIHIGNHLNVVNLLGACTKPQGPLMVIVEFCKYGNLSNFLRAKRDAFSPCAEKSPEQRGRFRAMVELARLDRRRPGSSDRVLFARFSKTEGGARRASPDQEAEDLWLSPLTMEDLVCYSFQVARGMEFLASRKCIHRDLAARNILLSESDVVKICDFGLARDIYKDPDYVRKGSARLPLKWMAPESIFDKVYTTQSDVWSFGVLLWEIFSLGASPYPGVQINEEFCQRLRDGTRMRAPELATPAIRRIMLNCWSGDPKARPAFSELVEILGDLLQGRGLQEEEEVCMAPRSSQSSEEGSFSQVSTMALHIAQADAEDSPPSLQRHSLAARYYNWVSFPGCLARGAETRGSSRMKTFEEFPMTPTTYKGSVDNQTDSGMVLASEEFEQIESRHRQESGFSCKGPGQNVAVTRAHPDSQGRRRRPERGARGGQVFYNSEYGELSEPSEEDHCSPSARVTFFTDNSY

[1] = tested on: KIT (human), P10721 [V559D/T670I]
[2] = tested on: KIT (human), P10721 [V559D]
LIMK1 (human) = LIMK1 (human) (UniProt P53667)
LIMK1 (human), sequence (P53667 whole entry, looked up): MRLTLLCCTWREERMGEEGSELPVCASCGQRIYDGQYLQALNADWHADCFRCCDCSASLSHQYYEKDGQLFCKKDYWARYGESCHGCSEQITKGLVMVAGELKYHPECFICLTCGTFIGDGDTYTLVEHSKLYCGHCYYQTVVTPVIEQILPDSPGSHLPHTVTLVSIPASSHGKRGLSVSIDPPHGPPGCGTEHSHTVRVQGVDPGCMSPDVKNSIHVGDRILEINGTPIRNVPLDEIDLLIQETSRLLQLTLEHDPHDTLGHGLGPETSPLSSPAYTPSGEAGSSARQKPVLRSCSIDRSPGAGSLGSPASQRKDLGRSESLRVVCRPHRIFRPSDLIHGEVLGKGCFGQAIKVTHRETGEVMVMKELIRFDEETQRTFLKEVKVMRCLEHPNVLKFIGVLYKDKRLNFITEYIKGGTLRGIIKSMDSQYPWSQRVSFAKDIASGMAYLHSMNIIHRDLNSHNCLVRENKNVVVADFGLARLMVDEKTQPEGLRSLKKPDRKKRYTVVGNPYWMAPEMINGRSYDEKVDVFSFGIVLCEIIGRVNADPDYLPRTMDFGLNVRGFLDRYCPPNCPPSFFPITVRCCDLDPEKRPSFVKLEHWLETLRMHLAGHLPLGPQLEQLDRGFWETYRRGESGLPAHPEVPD

MAP3K9 (human) = MAP3K9 (human) (UniProt P80192)
MAPK12 (human) = MAPK12 (human) (UniProt P53778)
MAPK7 (human) = MAPK7 (human) (UniProt Q13164)
MAPK8 (human) = MAPK8 (human) (UniProt P45983)
MAPK8 (human), sequence (P45983 whole entry, looked up): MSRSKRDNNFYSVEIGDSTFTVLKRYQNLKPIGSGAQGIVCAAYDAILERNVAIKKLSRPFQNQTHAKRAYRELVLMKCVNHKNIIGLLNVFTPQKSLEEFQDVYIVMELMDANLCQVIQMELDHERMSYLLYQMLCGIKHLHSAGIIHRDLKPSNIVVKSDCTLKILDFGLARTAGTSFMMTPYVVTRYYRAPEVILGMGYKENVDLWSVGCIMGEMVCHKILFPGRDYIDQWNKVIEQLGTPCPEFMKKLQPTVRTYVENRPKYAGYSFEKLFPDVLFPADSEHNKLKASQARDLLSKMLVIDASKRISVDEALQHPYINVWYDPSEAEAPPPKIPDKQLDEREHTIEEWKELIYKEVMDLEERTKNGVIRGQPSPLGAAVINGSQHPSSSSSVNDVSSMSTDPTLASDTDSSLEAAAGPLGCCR

MAPKAPK2 (human) = MAPKAPK2 (human) (UniProt P49137)
MARK2 (human) = MARK2 (human) (UniProt Q7KZI7)
MELK (human) = MELK (human) (UniProt Q14680)
MYLK (human) = MYLK (human) (UniProt Q15746)
MYLK2 (human) = MYLK2 (human) (UniProt Q9H1R3)
NEK5 (human) = NEK5 (human) (UniProt Q6P3R8)
NTRK1 (human) = NTRK1 (human) (UniProt P04629)
OXSR1 (human) = OXSR1 (human) (UniProt O95747)
PAK3 (human) = PAK3 (human) (UniProt O75914)
PDGFRB (human) = PDGFRB (human) (UniProt P09619)
[3] = tested on: PIK3CA (human), P42336 [I800L]
[4] = tested on: PIK3CA (human), P42336 [Q546K]
PKMYT1 (human) = PKMYT1 (human) (UniProt Q99640)
PRKCH (human) = PRKCH (human) (UniProt P24723)
PRPF4B (human) = PRPF4B (human) (UniProt Q13523)
RIOK1 (human) = RIOK1 (human) (UniProt Q9BRS2)
RIOK2 (human) = RIOK2 (human) (UniProt Q9BVS4)
ROS1 (human) = ROS1 (human) (UniProt P08922)
RPS6KA2 KD2 (human) = RPS6KA2 KD2 (human) (UniProt Q15349)
SBK1 (human) = SBK1 (human) (UniProt Q52WX2)
SNRK (human) = SNRK (human) (UniProt Q9NRH2)
SRPK3 (human) = SRPK3 (human) (UniProt Q9UPE1)
SRPK3 (human), sequence (Q9UPE1 whole entry, looked up): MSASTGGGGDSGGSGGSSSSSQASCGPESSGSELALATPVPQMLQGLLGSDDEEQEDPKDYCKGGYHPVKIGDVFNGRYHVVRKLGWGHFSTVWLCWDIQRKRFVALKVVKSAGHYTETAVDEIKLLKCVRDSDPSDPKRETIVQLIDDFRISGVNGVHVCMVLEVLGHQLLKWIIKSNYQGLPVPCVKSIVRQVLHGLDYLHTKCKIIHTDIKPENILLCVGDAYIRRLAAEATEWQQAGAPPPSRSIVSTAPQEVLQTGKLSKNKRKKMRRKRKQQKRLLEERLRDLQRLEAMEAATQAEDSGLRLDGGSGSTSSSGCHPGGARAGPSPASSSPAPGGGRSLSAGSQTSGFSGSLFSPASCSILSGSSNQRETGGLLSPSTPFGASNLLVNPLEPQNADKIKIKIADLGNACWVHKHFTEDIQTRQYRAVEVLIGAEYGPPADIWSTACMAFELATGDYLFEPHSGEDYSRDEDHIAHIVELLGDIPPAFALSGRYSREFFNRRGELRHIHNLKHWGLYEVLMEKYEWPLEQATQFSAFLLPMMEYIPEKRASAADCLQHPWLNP

STK32A (human) = STK32A (human) (UniProt Q8WU08)
STK38L (human) = STK38L (human) (UniProt Q9Y2H1)
STK38L (human), sequence (Q9Y2H1 whole entry, looked up): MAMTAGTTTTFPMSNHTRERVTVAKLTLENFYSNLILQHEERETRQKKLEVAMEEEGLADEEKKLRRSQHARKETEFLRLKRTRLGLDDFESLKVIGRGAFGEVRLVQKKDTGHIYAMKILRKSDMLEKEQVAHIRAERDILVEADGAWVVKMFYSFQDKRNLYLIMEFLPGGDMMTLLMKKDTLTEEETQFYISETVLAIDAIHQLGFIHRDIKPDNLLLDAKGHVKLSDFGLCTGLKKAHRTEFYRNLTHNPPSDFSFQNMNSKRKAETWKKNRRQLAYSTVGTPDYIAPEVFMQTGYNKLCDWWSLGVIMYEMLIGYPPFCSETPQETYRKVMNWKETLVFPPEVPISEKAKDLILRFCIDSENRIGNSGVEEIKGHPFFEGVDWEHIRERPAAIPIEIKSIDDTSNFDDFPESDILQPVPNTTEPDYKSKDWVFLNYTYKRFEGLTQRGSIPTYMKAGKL

TNIK (human) = TNIK (human) (UniProt Q9UKE5)
TNIK (human), sequence (Q9UKE5 whole entry, looked up): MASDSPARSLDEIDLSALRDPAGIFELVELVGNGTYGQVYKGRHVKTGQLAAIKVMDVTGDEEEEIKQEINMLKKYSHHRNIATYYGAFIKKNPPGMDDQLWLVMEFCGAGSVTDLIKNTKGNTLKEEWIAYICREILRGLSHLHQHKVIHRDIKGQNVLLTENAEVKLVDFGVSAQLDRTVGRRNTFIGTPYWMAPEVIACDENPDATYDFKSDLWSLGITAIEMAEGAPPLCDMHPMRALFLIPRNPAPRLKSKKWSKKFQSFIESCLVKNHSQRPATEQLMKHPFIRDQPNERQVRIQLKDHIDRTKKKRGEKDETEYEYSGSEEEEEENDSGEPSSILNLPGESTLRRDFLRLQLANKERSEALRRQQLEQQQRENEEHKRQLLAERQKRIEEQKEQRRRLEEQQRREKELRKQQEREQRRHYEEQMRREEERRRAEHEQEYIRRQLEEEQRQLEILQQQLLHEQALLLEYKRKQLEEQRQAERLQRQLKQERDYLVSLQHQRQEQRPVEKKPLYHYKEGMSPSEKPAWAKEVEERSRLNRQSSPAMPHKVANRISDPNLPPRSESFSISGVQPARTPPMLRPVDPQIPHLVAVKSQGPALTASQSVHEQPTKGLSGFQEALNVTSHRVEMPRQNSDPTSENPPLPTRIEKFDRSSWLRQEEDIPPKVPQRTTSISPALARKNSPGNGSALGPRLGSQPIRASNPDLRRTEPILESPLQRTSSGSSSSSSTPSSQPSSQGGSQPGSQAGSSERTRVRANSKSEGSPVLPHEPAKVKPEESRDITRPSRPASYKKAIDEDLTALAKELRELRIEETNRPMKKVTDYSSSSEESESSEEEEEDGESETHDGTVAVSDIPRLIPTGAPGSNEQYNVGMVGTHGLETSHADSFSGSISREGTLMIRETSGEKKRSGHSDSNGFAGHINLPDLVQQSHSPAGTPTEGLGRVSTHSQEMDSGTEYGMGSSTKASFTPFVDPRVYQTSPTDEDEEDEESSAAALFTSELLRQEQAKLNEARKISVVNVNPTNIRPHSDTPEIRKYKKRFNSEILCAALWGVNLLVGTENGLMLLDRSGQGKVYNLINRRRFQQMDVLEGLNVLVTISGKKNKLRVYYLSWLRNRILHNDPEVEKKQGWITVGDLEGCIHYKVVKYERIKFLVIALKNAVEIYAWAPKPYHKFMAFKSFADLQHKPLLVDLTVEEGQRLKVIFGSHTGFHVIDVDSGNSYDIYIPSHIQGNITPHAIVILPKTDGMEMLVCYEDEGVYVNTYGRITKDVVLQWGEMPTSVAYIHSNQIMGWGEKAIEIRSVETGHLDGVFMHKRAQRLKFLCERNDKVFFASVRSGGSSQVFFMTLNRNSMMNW

O=C(NC1CC1)c1cccc(-c2ccc3c(NC(=O)C4CC4)n[nH]c3c2)c1
kinase still bound, per cent of control (CDK19 (human)): 79%
kinase still bound, per cent of control (CSNK1E (human)): 80%
kinase still bound, per cent of control (CSNK1G3 (human)): 98%
kinase still bound, per cent of control (CSNK2A2 (human)): 16%
kinase still bound, per cent of control (CaMK1 (human)): 84%
kinase still bound, per cent of control (EPHA5 (human)): 95%
kinase still bound, per cent of control (FGFR4 (human)): 94%
kinase still bound, per cent of control (FLT4 (human)): 100%
kinase still bound, per cent of control [1]: 43%
kinase still bound, per cent of control [2]: 4.8%
kinase still bound, per cent of control (LIMK1 (human)): 100%
kinase still bound, per cent of control (MAP3K9 (human)): 66%
kinase still bound, per cent of control (MAPK12 (human)): 24%
kinase still bound, per cent of control (MAPK7 (human)): 93%
kinase still bound, per cent of control (MAPK8 (human)): 40%
kinase still bound, per cent of control (MAPKAPK2 (human)): 100%
kinase still bound, per cent of control (MARK2 (human)): 45%
kinase still bound, per cent of control (MELK (human)): 64%
kinase still bound, per cent of control (MYLK (human)): 63%
kinase still bound, per cent of control (MYLK2 (human)): 12%
kinase still bound, per cent of control (NEK5 (human)): 60%
kinase still bound, per cent of control (NTRK1 (human)): 60%
kinase still bound, per cent of control (OXSR1 (human)): 98%
kinase still bound, per cent of control (PAK3 (human)): 60%
kinase still bound, per cent of control (PDGFRB (human)): 24%
kinase still bound, per cent of control [3]: 100%
kinase still bound, per cent of control [4]: 98%
kinase still bound, per cent of control (PKMYT1 (human)): 77%
kinase still bound, per cent of control (PRKCH (human)): 100%
kinase still bound, per cent of control (PRPF4B (human)): 53%
kinase still bound, per cent of control (RIOK1 (human)): 10%
kinase still bound, per cent of control (RIOK2 (human)): 78%
kinase still bound, per cent of control (ROS1 (human)): 100%
kinase still bound, per cent of control (RPS6KA2 KD2 (human)): 82%
kinase still bound, per cent of control (SBK1 (human)): 100%
kinase still bound, per cent of control (SNRK (human)): 100%
kinase still bound, per cent of control (SRPK3 (human)): 10%
kinase still bound, per cent of control (STK32A (human)): 78%
kinase still bound, per cent of control (STK38L (human)): 96%
kinase still bound, per cent of control (TNIK (human)): 25%

C=CC(=O)Nc1cc(NC(=O)c2ccc(C)c(NC(=O)c3ccno3)c2)cc(C(F)(F)F)c1
kinase still bound, per cent of control (CDK19 (human)): 96%
kinase still bound, per cent of control (CSNK1E (human)): 100%
kinase still bound, per cent of control (CSNK1G3 (human)): 96%
kinase still bound, per cent of control (CSNK2A2 (human)): 81%
kinase still bound, per cent of control (CaMK1 (human)): 88%
kinase still bound, per cent of control (EPHA5 (human)): 80%
kinase still bound, per cent of control (FGFR4 (human)): 100%
kinase still bound, per cent of control (FLT4 (human)): 100%
kinase still bound, per cent of control [1]: 77%
kinase still bound, per cent of control [2]: 1.4%
kinase still bound, per cent of control (LIMK1 (human)): 100%
kinase still bound, per cent of control (MAP3K9 (human)): 98%
kinase still bound, per cent of control (MAPK12 (human)): 96%
kinase still bound, per cent of control (MAPK7 (human)): 92%
kinase still bound, per cent of control (MAPK8 (human)): 100%
kinase still bound, per cent of control (MAPKAPK2 (human)): 100%
kinase still bound, per cent of control (MARK2 (human)): 100%
kinase still bound, per cent of control (MELK (human)): 100%
kinase still bound, per cent of control (MYLK (human)): 100%
kinase still bound, per cent of control (MYLK2 (human)): 100%
kinase still bound, per cent of control (NEK5 (human)): 100%
kinase still bound, per cent of control (NTRK1 (human)): 87%
kinase still bound, per cent of control (OXSR1 (human)): 100%
kinase still bound, per cent of control (PAK3 (human)): 100%
kinase still bound, per cent of control (PDGFRB (human)): 1.2%
kinase still bound, per cent of control [3]: 93%
kinase still bound, per cent of control [4]: 78%
kinase still bound, per cent of control (PKMYT1 (human)): 83%
kinase still bound, per cent of control (PRKCH (human)): 100%
kinase still bound, per cent of control (PRPF4B (human)): 100%
kinase still bound, per cent of control (RIOK1 (human)): 100%
kinase still bound, per cent of control (RIOK2 (human)): 92%
kinase still bound, per cent of control (ROS1 (human)): 100%
kinase still bound, per cent of control (RPS6KA2 KD2 (human)): 100%
kinase still bound, per cent of control (SBK1 (human)): 100%
kinase still bound, per cent of control (SNRK (human)): 100%
kinase still bound, per cent of control (SRPK3 (human)): 100%
kinase still bound, per cent of control (STK32A (human)): 100%
kinase still bound, per cent of control (STK38L (human)): 88%
kinase still bound, per cent of control (TNIK (human)): 100%

O=C1Nc2ccc(I)cc2/C1=C/c1cc(Br)c(O)c(Br)c1
kinase still bound, per cent of control (CDK19 (human)): 63%
kinase still bound, per cent of control (CSNK1E (human)): 84%
kinase still bound, per cent of control (CSNK1G3 (human)): 94%
kinase still bound, per cent of control (CSNK2A2 (human)): 3.2%
kinase still bound, per cent of control (CaMK1 (human)): 70%
kinase still bound, per cent of control (EPHA5 (human)): 91%
kinase still bound, per cent of control (FGFR4 (human)): 100%
kinase still bound, per cent of control (FLT4 (human)): 100%
kinase still bound, per cent of control [1]: 23%
kinase still bound, per cent of control [2]: 1.8%
kinase still bound, per cent of control (LIMK1 (human)): 100%
kinase still bound, per cent of control (MAP3K9 (human)): 47%
kinase still bound, per cent of control (MAPK12 (human)): 74%
kinase still bound, per cent of control (MAPK7 (human)): 5%
kinase still bound, per cent of control (MAPK8 (human)): 86%
kinase still bound, per cent of control (MAPKAPK2 (human)): 100%
kinase still bound, per cent of control (MARK2 (human)): 44%
kinase still bound, per cent of control (MELK (human)): 99%
kinase still bound, per cent of control (MYLK (human)): 16%
kinase still bound, per cent of control (MYLK2 (human)): 85%
kinase still bound, per cent of control (NEK5 (human)): 87%
kinase still bound, per cent of control (NTRK1 (human)): 82%
kinase still bound, per cent of control (OXSR1 (human)): 100%
kinase still bound, per cent of control (PAK3 (human)): 100%
kinase still bound, per cent of control (PDGFRB (human)): 5.5%
kinase still bound, per cent of control [3]: 61%
kinase still bound, per cent of control [4]: 97%
kinase still bound, per cent of control (PKMYT1 (human)): 79%
kinase still bound, per cent of control (PRKCH (human)): 100%
kinase still bound, per cent of control (PRPF4B (human)): 50%
kinase still bound, per cent of control (RIOK1 (human)): 14%
kinase still bound, per cent of control (RIOK2 (human)): 35%
kinase still bound, per cent of control (ROS1 (human)): 99%
kinase still bound, per cent of control (RPS6KA2 KD2 (human)): 45%
kinase still bound, per cent of control (SBK1 (human)): 85%
kinase still bound, per cent of control (SNRK (human)): 99%
kinase still bound, per cent of control (SRPK3 (human)): 7.8%
kinase still bound, per cent of control (STK32A (human)): 91%
kinase still bound, per cent of control (STK38L (human)): 31%
kinase still bound, per cent of control (TNIK (human)): 2.7%
